Data from patent publication US10034922B2, “Peptide having angiogenesis inhibitory activity and composition containing same” (GemVax & KAEL Co., Ltd., priority 2013, dated 2018).

Experiments:
[1] = test system: HSP90; assay: HSP90 protein level by immunoblotting, serum-free media, 2 h treatment; assay type: cell-based, human; conditions: 17-AAG 1 μM, KNK437 1 μM
Description: (§1) Jurkat and MCF7 cells ([…]) were seeded and incubated for 12 hours. After treating the starvation for 2 hours by adding the OPTI-MEM media, same as the shown figure, the cells were treated by the PEP1 at the different concentrations, by the scrambled peptides, […] (1 μM) or KNK437 (1 μM). After the 2-hour incubation, the cells were collected and lysated by using cell lysis buffer (Thermo Scientific, IL, USA). By using Bradford Protein Assay (Bio-Rad, USA), the protein concentration was quantified, and the samples were treated by SDS-PAGE and immunoblotting with α-HSP70 (sc-32239 and sc-66048, Santa Cruz, Calif., USA), α-HSP90 (ab1429, abcam, USA), α-GRP78 (sc-13968), α-HIF-1a (sc-10790) or α-GAPDH (sc-25778) antibodies. The immune reactive band was visualized by the intensive chemiluminescence kit (iNtRoN Biotechnology, INC, Korea), and analyzed by ImageQuant™ LAS-4000 (GE Healthcare Life Science, NJ, US).

[2] = test system: HSP70; assay: HSP70 protein level by immunoblotting, serum-free media, 2 h treatment; assay type: cell-based, human; conditions: MCF7 cells, PEP1 20 μM, 17-AAG 1 μM, KNK437 1 μM
Description: as §1

Structure (SMILES) | amount of HSP90, comparison with HSP inhibitors ([1]; Jurkat cells, PEP1 5 μM) | amount of HSP90, comparison with HSP inhibitors ([1]; MCF7 cells, PEP1 20 μM) | amount of HSP70, comparison with HSP inhibitors [2]
O=CN1CC/C(=C\c2ccc3c(c2)OCO3)C1=O [KNK437] | decreased | decrease | decrease
C=CCNC1=C2C[C@@H](C)C[C@H](OC)[C@H](O)[C@@H](C)/C=C(\C)[C@H](OC(N)=O)[C@@H](OC)/C=C\C=C(/C)C(=O)NC(=CC1=O)C2=O [17-AAG] | decreased | very little effect | very little effect
